Series [1] addresses T1, EGFR protein (Homo sapiens, UniProt P00533).
T1 construct: A431 cell lysate; endogenous in cells; host or cells: A431
The series is described as follows: ELISA assay measuring the kinase activity of the EGF receptor (EGFR captured from A431 cell lysate). It is filed as biochemical. The procedure:
The following protocol describes the reagents and procedures used to analyze protein tyrosine kinase activity on the EGFR protein.
All of the following steps are conducted at room temperature unless it is specifically indicated. All ELISA plate washing is by rinsing 4× with TBST.
1. Coat Corning 96 well ELISA plates with 0.5 μg/well of SUMO1 in a volume of 100 μL PBS. Store overnight at 4° C.
2. Remove unbound SUMO1 by inverting plate to remove liquid. Wash plates with distilled water. Pat plate on a paper towel to remove excess liquid and bubbles
3. Add 150 μL of Blocking Buffer to each well. Incubate while shaking on a microliter plate shaker at room temperature for 30 min.
4. Wash 3× with deionized water, then once with TBST. Pat plate on a paper towel to remove excess liquid and bubbles.
5. Dilute lysate in PBS (7 μg of lysate/100 μL of PBS).
6. Add 100 μL of diluted lysate to each well. Shake at room temperature for 60 min.
7. Wash as described in step 4.
8. Add 120 μL TBS to ELISA plate containing captured EGFR.
9. Dilute drugs/extracts 1:10 (unless specified otherwise) in TBS in 96-well polypropylene plates.
10. Add 13.5 μL diluted drugs/extracts to ELISA plate.
11. Incubate for 30 minutes while shaking at room temperture.
12. […] Incubate while shaking on a micro-liter plate shaker at room temperature for 5 min.
13. Stop Kinase reaction with the addition of 16.5 μL of 200 mM EDTA pH 8.0 to all wells.
14. Wash 4× with deionized water and twice with TBST.
15. Add 100 μL per well of anti-phosphotyrosine (1:3000 dilution in TBST). Incubate while shaking on a micro-liter plate shaker 30-45 minutes at room temperature while shaking.
16. Wash as described in step 4.
17. Add 100 μL per well of biosource Goat anti-rabbit IgG peroxidase conjugate (1:2000 dilution in TBST). Incubate 30 min. at room temerature while shaking.
18. Wash as described in step 4.
19. Add 100 μL of ABTS/H2O2 solution to each well.
20. Incubate 5 to 15 minutes while shaking. Remove any bubbles.
21. If necessary stop reaction with the addition of 10 μL of 0.2 M HCl/well.
22. Read assay on Dynatech MR7000 ELISA Plate Reader.
(§1) The IC50 values were measured for several of the compounds of the invention.
For orientation: In an ELISA, binding on a coated surface is turned into a signal by an enzyme label.

Series [2] deals with PDGF receptor (Homo sapiens, UniProt P09619). Kind of series: ELISA assay measuring the kinase activity of the PDGF receptor in U1242 cells. It is filed as cell-based. To be noted: ligand stimulation, phosphotyrosine ELISA. The procedure:
All cell culture media, glutanine, and fetal bovine serum were purchased from Gibco Life Technologies (Grand Island, N.Y.) unless otherwise specified. All cells were grown in a humid atmosphere of 90-95% air and 5-10% CO2 at 37° C. All cell lines were routinely subcultured twice a week and were negative for mycoplasma as determined by the Mycotect method (Gibco).
For ELISA assays, cells (U1242, obtained from Joseph Schlessinger, NYU) were grown to 80-90% confluency in growth medium (MEM with 10% FBS, NEAA, 1 mM NaPyr and 2 mM GLN) and seeded in 96-well tissue culture plates in 0.5% serum at 25,000 to 30,000 cells per well. After overnight incubation in 0.5% serum-containing medium cells were changed to serum-free medium and treated with test compound for 2 hr in a 5% CO21 37° C. incubator. […] Absorbance at 410 nm with a reference wavelength of 630 nm was recorded about 15 to 30 min after ABTS addition.
as §1

In series [3] the target is Myc-GyrB-FGFR fusion protein (Homo sapiens, UniProt P11362). Kind of series: ELISA assay measuring the kinase activity of the FGF receptor (Myc-GyrB-FGFR from COS/FGFR cell lysate). The series is classed as biochemical. The following applies: 7 μM ATP.
Sequence of Myc-GyrB-FGFR fusion protein (P11362 398-822): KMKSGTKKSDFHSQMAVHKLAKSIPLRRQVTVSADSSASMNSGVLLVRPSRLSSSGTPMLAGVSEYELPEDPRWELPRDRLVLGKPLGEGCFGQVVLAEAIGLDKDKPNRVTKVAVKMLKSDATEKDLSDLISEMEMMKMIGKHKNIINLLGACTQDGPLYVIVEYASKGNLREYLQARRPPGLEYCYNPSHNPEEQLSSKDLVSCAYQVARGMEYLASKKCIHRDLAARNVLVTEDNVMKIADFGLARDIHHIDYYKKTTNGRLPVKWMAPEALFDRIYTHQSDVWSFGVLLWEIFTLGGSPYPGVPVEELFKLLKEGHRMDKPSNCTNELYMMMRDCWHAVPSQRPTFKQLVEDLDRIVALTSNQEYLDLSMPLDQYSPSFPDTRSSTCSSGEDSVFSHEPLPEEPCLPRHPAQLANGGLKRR
Method: The following protocol describes the reagents and procedures used to analyze protein-tyrosine kinase activity of the Myc-GyrB-FGFR fusion protein.
Coat Corning 96 well ELISA plates with 1.0 μg/well of Rabbit αGyrB antibody in PBS for a total well volume of 100 μL. Store overnight at 4° C.
Remove unbound Rabbit antibody by inverting plate to remove liquid. Pat plate on a paper towel to remove excess liquid and bubbles
Add 100 μL of Blocking Buffer (TBB) to each well. Incubate while shaking on a microliter plate shaker at room temperature for 30 min.
Wash 4× with TBST. Pat plate on a paper towel to remove excess liquid and bubbles.
Add 15 μg COS/FGFR cell lysate Myc-GyrB-FGFR sources per well in HNTG for a final volume of 100 μL per well. Incubate while shaking on a micro-liter plate shaker at room temperature for 2 hours.
Wash 4× with TBST as described in step 4.
Add 80 μL of 1× kinase buffer per well.
Dilute compunds/extracts 1:10 (or as stated otherwise) in 1× kinase buffer +1% DMSO in a polypropylene 96 well plate.
At this point diluted Compounds/Extracts are added to the ELISA plate. […]

T1 sequence (P00533 25-1210): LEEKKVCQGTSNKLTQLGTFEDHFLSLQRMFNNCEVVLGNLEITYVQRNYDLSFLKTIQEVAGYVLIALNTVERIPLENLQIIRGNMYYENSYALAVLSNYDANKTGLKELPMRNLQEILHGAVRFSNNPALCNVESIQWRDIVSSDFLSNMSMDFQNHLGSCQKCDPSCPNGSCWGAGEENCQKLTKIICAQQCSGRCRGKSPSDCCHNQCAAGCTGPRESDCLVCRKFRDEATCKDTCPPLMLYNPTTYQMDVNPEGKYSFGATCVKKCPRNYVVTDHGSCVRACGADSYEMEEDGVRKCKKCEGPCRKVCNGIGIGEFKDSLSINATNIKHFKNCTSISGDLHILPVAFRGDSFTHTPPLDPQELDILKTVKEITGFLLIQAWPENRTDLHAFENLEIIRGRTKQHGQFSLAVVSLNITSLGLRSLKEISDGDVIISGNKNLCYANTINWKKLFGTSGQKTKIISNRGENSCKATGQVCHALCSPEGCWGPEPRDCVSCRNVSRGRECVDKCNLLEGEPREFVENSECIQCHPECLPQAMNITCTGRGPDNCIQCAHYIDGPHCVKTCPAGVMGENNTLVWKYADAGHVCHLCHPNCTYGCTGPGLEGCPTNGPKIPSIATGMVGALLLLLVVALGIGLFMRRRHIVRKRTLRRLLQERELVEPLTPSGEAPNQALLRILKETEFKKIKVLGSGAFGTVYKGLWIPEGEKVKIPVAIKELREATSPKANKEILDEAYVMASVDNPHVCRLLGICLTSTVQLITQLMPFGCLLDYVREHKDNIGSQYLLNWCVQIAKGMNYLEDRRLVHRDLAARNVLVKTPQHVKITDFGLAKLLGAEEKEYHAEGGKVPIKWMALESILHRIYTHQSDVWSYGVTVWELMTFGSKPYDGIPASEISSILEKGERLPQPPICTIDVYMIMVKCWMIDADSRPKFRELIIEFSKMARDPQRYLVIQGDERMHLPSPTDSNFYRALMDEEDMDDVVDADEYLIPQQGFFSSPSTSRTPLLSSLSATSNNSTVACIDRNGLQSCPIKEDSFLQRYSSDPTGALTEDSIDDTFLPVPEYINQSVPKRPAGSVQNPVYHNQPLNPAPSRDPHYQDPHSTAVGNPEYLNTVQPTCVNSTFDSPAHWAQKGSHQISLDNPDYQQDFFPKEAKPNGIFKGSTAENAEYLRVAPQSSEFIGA
Sequence of PDGF receptor (P09619 33-1106): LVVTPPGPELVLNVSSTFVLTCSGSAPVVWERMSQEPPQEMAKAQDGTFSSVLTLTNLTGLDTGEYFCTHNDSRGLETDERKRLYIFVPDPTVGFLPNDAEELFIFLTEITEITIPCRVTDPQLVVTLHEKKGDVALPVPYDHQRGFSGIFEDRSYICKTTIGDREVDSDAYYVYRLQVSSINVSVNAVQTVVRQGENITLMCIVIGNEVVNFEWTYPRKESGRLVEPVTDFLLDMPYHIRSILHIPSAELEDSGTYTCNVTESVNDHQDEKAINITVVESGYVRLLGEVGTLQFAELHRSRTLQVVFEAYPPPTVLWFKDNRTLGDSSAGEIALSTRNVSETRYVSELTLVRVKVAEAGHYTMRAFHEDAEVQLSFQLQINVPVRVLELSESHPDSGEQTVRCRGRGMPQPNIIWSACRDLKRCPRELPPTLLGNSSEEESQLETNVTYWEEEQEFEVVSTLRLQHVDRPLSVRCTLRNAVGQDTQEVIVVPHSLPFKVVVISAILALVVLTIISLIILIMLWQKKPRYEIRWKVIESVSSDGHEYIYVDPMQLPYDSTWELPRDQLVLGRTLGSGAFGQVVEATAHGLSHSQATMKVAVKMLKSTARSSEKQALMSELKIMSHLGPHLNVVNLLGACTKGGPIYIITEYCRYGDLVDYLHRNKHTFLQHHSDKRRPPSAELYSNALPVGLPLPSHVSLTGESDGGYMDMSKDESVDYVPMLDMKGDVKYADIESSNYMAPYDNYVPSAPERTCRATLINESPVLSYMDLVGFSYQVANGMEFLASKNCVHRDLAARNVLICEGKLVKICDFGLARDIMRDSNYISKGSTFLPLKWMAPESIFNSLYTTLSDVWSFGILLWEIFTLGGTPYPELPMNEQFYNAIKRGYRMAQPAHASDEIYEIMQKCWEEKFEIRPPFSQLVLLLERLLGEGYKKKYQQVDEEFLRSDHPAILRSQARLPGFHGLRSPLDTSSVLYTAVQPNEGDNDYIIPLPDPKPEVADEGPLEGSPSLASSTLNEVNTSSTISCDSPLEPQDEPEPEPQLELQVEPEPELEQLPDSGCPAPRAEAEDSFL

As for `Cc1c[nH]c(C=C2C(=O)Nc3ccc(Cl)cc32)c1CCC(=O)O` [IN-027, 3-[2-(5-Chloro-2-oxo-1,2-dihydro-indol-3-ylidenemethyl)-4-methyl-1H-pyrrol-3-yl]-propionic acid], the concentration for half-maximal inhibition (IC50) (commonly the concentration that gives 50% inhibition) in series [1] was above 100 µM.

For `O=C(CCc1c(C=C2C(=O)Nc3ccccc32)[nH]c2c1CCCC2)NCCN1CCOCC1` [IN-013, N-(2-Morpholin-4-yl-ethyl)-3-[2-(2-oxo-1,2-dihydro-indol-3-ylidenemethyl)-4,5,6,7-tetrahydro-1H-indol-3-yl]-propionamide], the melting point – broadly, the temperature, or range, at which the solid turns liquid – lay in the range of 256 to 258 °C.

As for `O=C(O)CCc1c(C=C2C(=O)Nc3ccccc32)[nH]c2c1CCCC2` [IN-001, 3-[2-(2-Oxo-1,2-dihydro-indol-3-ylidenemethyl)-4,5,6,7-tetrahydro-1H-indol-3-yl]-propionic acid], the melting point lay within 263 to 265 °C.

As to `COc1ccc2c(c1)NC(=O)C2=Cc1[nH]cc(C)c1CCC(=O)O` [IN-028, 3-[2-(6-Methoxy-2-oxo-1,2-dihydro-indol-3-ylidenemethyl)-4-methyl-1H-pyrrol-3-yl]-propionic acid], the IC50 in series [1] is above 100 µM.

Molecule `Cc1c[nH]c(C=C2C(=O)Nc3cccc(C)c32)c1CCC(=O)O` [IN-029, 3-[2-(4-Methyl-2-oxo-1,2-dihydro-indol-3-ylidenemethyl)-4-methyl-1H-pyrrol-3-yl]-propionic acid] displayed an IC50 in series [1] above 100 µM.

For `O=C(O)CCc1c(C=C2C(=O)Nc3ccc(Cl)cc32)[nH]c2c1CCCC2` [IN-002, 3-[2-(5-Chloro-2-oxo-1,2-dihydro-indol-3-ylidenemethyl)-4,5.6,7-tetrahydro-1H-indol-3-yl]-propionic acid], the IC50 in series [2] was 50 nM; in series [3], 370 nM.

On to `Cc1c[nH]c(C=C2C(=O)Nc3ccccc32)c1CCC(=O)O` [IN-026, 3-[4-Methyl-2-(2-oxo-1,2-dihydro-indol-3-ylidenemethyl)-1H-pyrrol-3-yl]-propionic acid], for which the IC50 in series [1] was above 100 µM.

Take `Cc1c[nH]c(C=C2C(=O)Nc3ccc(Br)cc32)c1CCC(=O)O` [IN-031, 3-[2-(5-Bromo-2-oxo-1,2-dihydro-indol-3-ylidenemethyl)-4-methyl-1H-pyrrol-3-yl]-propionic acid]: the half-maximal inhibitory concentration (IC50) in series [1] is above 100 µM.

In the case of `Cc1c[nH]c(C=C2C(=O)Nc3cc(Cl)ccc32)c1CCC(=O)O` [IN-030, 3-[2-(6-Chloro-2-oxo-1,2-dihydro-indol-3-ylidenemethyl)-4-methyl-1H-pyrrol-3-yl]-propionic acid], the IC50 in series [1] amounted to 98.1 µM.

Values taken from patent publication US20040067531A1, “Methods of modulating protein tyrosine kinase function with substituted indolinone compounds” (SUGEN, INC., priority 1997, published 2004).
